Experimental data from paper PMC5628579, “Potent mechanism-based sirtuin-2-selective inhibition by an in situ-generated occupant of the substrate-binding site, “selectivity pocket” and NAD^+-binding site” (Chemical Science, 2017).

How the values were obtained:
[1] = system: acetylated α-tubulin (SIRT2 substrate); test: Western blot of acetylated α-tubulin in MDA-MB-231 cells; format: cell-based, human; conditions: 20 μM, 6 h
Procedure: MCF-7 and MDA-MB-231 cells were plated in 96-well plates (initial density: 1 × 10^3 cells per well) and incubated at 37 °C. After 24 h, test compound solutions (50 μL/well) of varying concentrations in medium (DMEM and Leibovitz's L-15 for MCF-7 and MDA-MB-231 cells respectively) for were added to the cells at 37 °C under 5% CO2 in air and left to react for 72 h. Thereafter, the mixtures were treated with 10 μL of AlamarBlue® (AbD Serotec, #BUF012A), incubation was continued at 37 °C for 3 h. The fluorescence in each well was measured with an ARVOTM X3 microplate reader (λex = 540 nm; λem = 590 nm). With the obtained fluorescence readings, it was possible to calculate the percentage of cell growth.
MDA-MB-231 cells (5 × 10^5 cells/2 mL/dish) were treated for 6 h with the test compounds at the indicated concentrations in the cell culture medium, before the cells were collected and extracted with SDS buffer. The protein concentrations of the lysates were determined using a BCA protein assay.
Equivalent amounts of protein from each lysate were resolved in 5–20% SDS-polyacrylamide gels and transferred onto PVDF membranes. […]
For the differentiation study, the medium was changed to DMEM supplemented with 2% FBS. After incubation with or without 36 for 72 h, the cell morphology was examined using a microscope (Olympus CKX41) and further analyzed with the Photomeasure software (Kenis Ltd.). […]

SIRT5 = target: T1, SIRT5 (Homo sapiens, UniProt Q9NXA8); test: Fluor de Lys SIRT5 assay
T1 sequence (Q9NXA8 37-310): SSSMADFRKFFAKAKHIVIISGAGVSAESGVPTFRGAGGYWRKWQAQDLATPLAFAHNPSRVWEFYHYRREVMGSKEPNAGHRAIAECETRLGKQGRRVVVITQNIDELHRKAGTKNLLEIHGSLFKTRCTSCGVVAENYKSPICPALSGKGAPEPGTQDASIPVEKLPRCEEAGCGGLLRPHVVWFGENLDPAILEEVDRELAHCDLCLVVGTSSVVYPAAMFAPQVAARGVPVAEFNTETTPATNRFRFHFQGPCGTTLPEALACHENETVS

MDA-MB-231 cells = test: Cell growth assay (AlamarBlue), MDA-MB-231; format: cell-based, human; conditions: 72 h of treatment
SIRT2 = target: T2, SIRT2 (Homo sapiens, UniProt Q8IXJ6); test: Fluor de Lys SIRT2 assay
T2 sequence (Q8IXJ6 1-389): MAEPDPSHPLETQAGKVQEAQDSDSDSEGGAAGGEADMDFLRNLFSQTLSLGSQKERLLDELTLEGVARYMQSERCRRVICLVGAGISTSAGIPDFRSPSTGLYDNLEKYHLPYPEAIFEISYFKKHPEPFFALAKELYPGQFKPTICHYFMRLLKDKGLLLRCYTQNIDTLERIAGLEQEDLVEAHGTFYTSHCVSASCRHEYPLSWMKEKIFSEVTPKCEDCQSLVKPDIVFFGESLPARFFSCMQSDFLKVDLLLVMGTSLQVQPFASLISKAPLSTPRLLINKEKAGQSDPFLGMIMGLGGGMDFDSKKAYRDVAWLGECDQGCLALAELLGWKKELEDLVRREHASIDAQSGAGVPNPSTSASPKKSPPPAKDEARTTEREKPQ

inhibition at 10 µM (SIRT5; read-out: % inhibition at 10 μM SIRT5): 4 ± 2.6% | inhibition at 50 µM (SIRT5; read-out: % inhibition at 50 μM SIRT5): 10% | GI50 (MDA-MB-231 cells): 8.43 ± 0.24 µM | GI50 (MDA-MB-231 cells; Homo sapiens, MDA-MB-231, 72 h): 8.3 µM | IC50 (SIRT2): 0.055 ± 0.0035 µM | inhibition at 1 µM (SIRT2; read-out: % inhibition at 1 μM SIRT2): 100 ± 3.4% | SIRT1 [IC50]/SIRT2 [IC50] (SIRT2; selectivity ratio): 28.4 | SIRT3 [IC50]/SIRT2 [IC50] (SIRT2; selectivity ratio): 172.5
Compound: C[C@H](NC(=O)[C@H](CCCCNC(=S)CNC(=O)c1ccccc1Nc1cccc(OCCc2ccccc2)c1)NC(=O)OCc1ccccc1)C(N)=O [Compound 36]
acetylated α-tubulin level (western blot) [1]: induced the accumulation of acetylated α-tubulin
